Data reported in BindingDB's records for doi:10.1016/s0960-894x(99)00444-8 (The University of Montana, 1999).

Target: Vesicular glutamate transporter 1 (Rattus norvegicus) (UniProt Q62634)
Assay: Compound was evaluated for the binding affinity against glutamate vesicular transport (GVT)

Chain of Vesicular glutamate transporter 1 (Rattus norvegicus) (Q62634 whole entry, looked up): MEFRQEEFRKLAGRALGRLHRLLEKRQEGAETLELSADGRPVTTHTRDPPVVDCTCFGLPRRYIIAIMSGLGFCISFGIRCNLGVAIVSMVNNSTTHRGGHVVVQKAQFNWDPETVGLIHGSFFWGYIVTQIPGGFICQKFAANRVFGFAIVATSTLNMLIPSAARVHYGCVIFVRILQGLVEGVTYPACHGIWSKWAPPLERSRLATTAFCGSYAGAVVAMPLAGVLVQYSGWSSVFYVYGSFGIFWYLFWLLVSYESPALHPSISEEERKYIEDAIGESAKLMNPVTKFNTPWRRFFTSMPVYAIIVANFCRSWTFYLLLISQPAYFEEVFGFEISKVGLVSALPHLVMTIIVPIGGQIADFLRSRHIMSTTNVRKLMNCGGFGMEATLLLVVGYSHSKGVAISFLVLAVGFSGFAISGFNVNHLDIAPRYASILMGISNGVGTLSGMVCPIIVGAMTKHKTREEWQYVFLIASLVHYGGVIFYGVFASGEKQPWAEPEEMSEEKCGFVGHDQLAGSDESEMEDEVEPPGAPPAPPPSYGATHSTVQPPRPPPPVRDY

Compound: O=C(O)c1cc(C(=O)O)c2cc(OCc3ccccc3)ccc2n1 [6-Benzyloxy-quinoline-2,4-dicarboxylic acid]
- Ki: 204 µM
